Reference: ChEMBL document CHEMBL6103652, “Niacin Ester Derivative of Brefeldin A as a Potential Dual-Target Arf1/BMX Inhibitor for Bladder Cancer” (J Nat Prod, 2025)
In brackets after ≈: the same amount, converted by molar mass. Activity calls are given as the source filed them. The calls are words filed in the database; no cut-off is given here.

Legend:
[1] = biological target: T1, Cytoplasmic tyrosine-protein kinase BMX (Homo sapiens) (UniProt P51813); test: Inhibition of BMX phosphorylation in human T24 cells incubated for 24 hrs by Western blotting analysis; assay type: cell-based; settings: dose 0.13-0.5 µM
T1 sequence (whole entry): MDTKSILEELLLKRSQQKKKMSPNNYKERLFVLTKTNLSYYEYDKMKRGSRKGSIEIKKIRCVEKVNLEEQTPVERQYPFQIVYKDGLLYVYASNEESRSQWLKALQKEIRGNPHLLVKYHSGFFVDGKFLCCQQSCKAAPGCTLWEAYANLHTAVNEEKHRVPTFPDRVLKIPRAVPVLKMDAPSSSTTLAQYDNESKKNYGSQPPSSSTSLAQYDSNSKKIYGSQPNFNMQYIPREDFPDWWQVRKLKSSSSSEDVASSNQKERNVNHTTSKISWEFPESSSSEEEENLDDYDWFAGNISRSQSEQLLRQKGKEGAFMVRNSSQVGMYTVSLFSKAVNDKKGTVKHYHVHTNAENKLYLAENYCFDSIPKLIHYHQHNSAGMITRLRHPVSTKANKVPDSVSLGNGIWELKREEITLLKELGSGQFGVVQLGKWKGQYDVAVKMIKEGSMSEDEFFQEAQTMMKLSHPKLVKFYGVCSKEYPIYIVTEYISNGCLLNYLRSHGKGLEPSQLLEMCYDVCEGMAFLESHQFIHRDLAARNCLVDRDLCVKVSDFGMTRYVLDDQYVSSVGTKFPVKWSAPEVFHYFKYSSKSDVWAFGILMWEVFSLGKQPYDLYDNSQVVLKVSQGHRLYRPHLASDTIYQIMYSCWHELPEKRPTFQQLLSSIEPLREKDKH

[2] = tested on: T-24; test: Antiproliferative activity against human T24 cells assessed as inhibition of cell proliferation at 0.25 uM incubated for 72 hrs by MTT assay relative to control; assay type: functional
[3] = tested on: T-24; test: Induction in apoptosis in human T24 cells assessed as viable cells at 0.25 uM incubated for 48 hrs by Annexin V-FITC staining based flow cytometry analysis (reference value: 90.44 %); assay type: functional; settings: read-out: Activity
[4] = tested on: T-24; test: Induction of cell cycle arrest in human T24 cells assessed as accumulation of cells at S phase at 0.25 uM incubated for 24 hrs by RNase A/Propidium Iodide staining based flow cytometry analysis (reference value: 31.27 %); assay type: functional
[5] = tested on: T-24; test: Inhibition of colony formation in human T24 cells at 0.25 uM measured after 10 days by crystal violet staining based analysis; assay type: functional, cell-based; settings: time 10.0 day
[6] = Solubility of the compound in Solutol HS-15; assay type: physicochemical
[7] = Toxicity in ICR mouse assessed as body weight change at 100 mg/kg, ip administered once for 14 days; assay type: organism-based; settings: in vivo, 336 h, time 14 day
[8] = tested on: T-24; test: Induction in apoptosis in human T24 cells assessed as necrotic cells at 0.5 uM incubated for 48 hrs by Annexin V-FITC staining based flow cytometry analysis (reference value: 1.14 %); assay type: functional
[9] = tested on: L1210; test: Antiproliferative activity against mouse L1210 cells assessed as inhibition of cell proliferation measured after 72 hrs by MTT assay; assay type: functional, cell-based; settings: L1210, 72 h
[10] = Toxicity in male C57BL/6 mouse allografted with mouse MB49 cells assessed as tumor cell apoptosis at 1 mg/kg,iv bid measured after 14 days by H and E staining based analysis; assay type: organism-based; settings: in vivo, 336 h, time 14 day
[11] = Downregulation of p-AKT expression level in human T24 cells at 0.13 to 0.50 uM incubated for 24 hrs by Western blotting analysis relative to control; assay type: functional, T-24; settings: dose 0.13-0.5 µM, at 0.13 to 0.5 µM
[12] = tested on: T-24; test: Induction in apoptosis in human T24 cells assessed as late apoptotic cells at 0.13 uM incubated for 48 hrs by Annexin V-FITC staining based flow cytometry analysis (reference value: 4.78 %); assay type: functional
[13] = Cmax in Sprague-Dawley rat at 5 mg/kg, iv measured upto 24 hrs; assay type: ADME, organism-based; settings: in vivo
[14] = tested on: MB49; test: Antitumor immunity against mouse MB49 cells implanted in male C57BL/6 mouse assessed as increase in infiltration of CD4+ cells at 1 mg/kg,iv bid measured after 14 days immunofluorescence based analysis; assay type: functional, organism-based; settings: time 14.0 day
[15] = biological target: T1, Cytoplasmic tyrosine-protein kinase BMX (Homo sapiens); test: Induction of thermal stabilization of BMX in human T24 cells pretreated for 2 hrs followed by pronase addition and measured after 25 mins by DARTS assay; assay type: cell-based; settings: dose 0.2-5 mM
[16] = tested on: HCT-116; test: Antiproliferative activity against human HCT-116 cells assessed as inhibition of cell proliferation measured after 72 hrs by MTT assay; assay type: functional, cell-based; settings: HCT-116, 72 h
[17] = tested on: MB49; test: Antitumor immunity against mouse MB49 cells implanted in male C57BL/6 mouse assessed as increase in infiltration of CD8+T cells at 1 mg/kg,iv bid measured after 14 days immunofluorescence based analysis; assay type: functional, organism-based; settings: time 14.0 day
[18] = tested on: T-24; test: Induction in apoptosis in human T24 cells assessed as total apoptotic cells at 0.125 to 0.50 uM incubated for 48 hrs by Annexin V-FITC staining based flow cytometry analysis (reference value: 8 %); assay type: functional; settings: dose 0.125-0.5 µM, at 0.125 to 0.5 µM
[19] = Cytotoxicity against human LO2 cells measured after 72 hrs by MTT assay; assay type: toxicity, cell-based, L02
[20] = tested on: A549; test: Antiproliferative activity against human A549 cells assessed as inhibition of cell proliferation measured after 72 hrs by MTT assay; assay type: functional, cell-based; settings: A549, 72 h
[21] = Solubility of the compound in PEG400; assay type: physicochemical
[22] = tested on: T-24; test: Induction of cell cycle arrest in human T24 cells assessed as accumulation of cells at G1 phase at 0.50 uM incubated for 24 hrs by RNase A/Propidium Iodide staining based flow cytometry analysis (reference value: 43.80 %); assay type: functional; settings: dose 0.5 µM
[23] = tested on: T-24; test: Inhibition of cell migration in human T24 cells at 0.25 uM incubated for 12 hrs by scratch assay (reference value: 66 %); assay type: functional
[24] = tested on: T-24; test: Induction of cell cycle arrest in human T24 cells assessed as accumulation of cells at G2/M phase at 0.13 uM incubated for 24 hrs by RNase A/Propidium Iodide staining based flow cytometry analysis (reference value: 22.67 %); assay type: functional
[25] = tested on: T-24; test: Inhibition of cell migration in human T24 cells at 0.125 uM incubated for 24 hrs by scratch assay (reference value: 88 %); assay type: functional; settings: T-24, 24 h
[26] = biological target: T1, Cytoplasmic tyrosine-protein kinase BMX (Homo sapiens); test: Induction of thermal stabilization of BMX in human T24 cells at 48 to 68 degreeC at 0.13 to 0.50 uM incubated for 6 hrs by CETSA analysis; assay type: cell-based; settings: dose 0.13-0.5 µM
[27] = tested on: T-24; test: Induction of cell cycle arrest in human T24 cells assessed as accumulation of cells at S phase at 0.13 uM incubated for 24 hrs by RNase A/Propidium Iodide staining based flow cytometry analysis (reference value: 31.27 %); assay type: functional
[28] = tested on: MB49; test: Antitumor immunity against mouse MB49 cells implanted in male C57BL/6 mouse assessed as increase in infiltration of CD3+ cells at 1 mg/kg,iv bid measured after 14 days immunofluorescence based analysis; assay type: functional, organism-based; settings: time 14.0 day
[29] = Toxicity in male C57BL/6 mouse allografted with mouse MB49 cells assessed as adverse effect at 1 mg/kg,iv bid measured after 14 days; assay type: organism-based; settings: in vivo, 336 h, time 14 day

SMILES: C[C@H]1CCC/C=C/[C@@H]2C[C@H](O)C[C@H]2[C@H](OC(=O)c2cccnc2)/C=C/C(=O)O1
- inhibition [1]: Dose-dependent-effect
- inhibition at 0.25 µM [2]: 54%
- viability at 0.25 µM [3]: 66.9%
- Activity [4]: 29.56%
- inhibition [5]: Active; Entirely Suppressed Clone Formation Was Observed
- solubility [6]: 2000 µg/mL (≈ 5.19 mM)
- Activity [7]: Non-toxic
- Activity [8]: 3.49%
- IC50 [9]: 6.18 µM
- Activity [10]: Non-toxic
- Activity [11]: 46%
- Activity [12]: 4.41%
- Cmax [13]: 1460 ng/mL
- Activity [14]: Active
- Activity [15]: Dose-dependent-effect
- IC50 [16]: 580 nM
- Activity [17]: Active
- Activity [18]: 31%
- IC50 at 72 h [19]: 790 nM
- IC50 [20]: 230 nM
- solubility [21]: Not_active
- Activity [22]: 63.82%
- wound closure at 0.25 µM [23]: 17%
- Activity [24]: 22.53%
- wound closure at 0.125 µM [25]: 44%
- Activity [26]: Active
- Activity [27]: 28.6%
- Activity [28]: Active
- Activity [29]: Non-toxic
